From ChEMBL document CHEMBL1132900, “Methaqualone derivatives are potent noncompetitive AMPA receptor antagonists” (Bioorg Med Chem Lett, 2000) come the findings set out here.

What is called IC50 is the concentration that gives 50% inhibition. Read a low IC50 as greater potency in that assay.

SMILES strings stand for the structures. Bounds are passed on as bounds.

The assay addresses Glutamate receptor ionotropic, AMPA (Rattus norvegicus, UniProt P19490+P19491+P19492+P19493).
Description: Antagonist potency against functional AMPA receptor by kainate-induced Ca+2 in rat cerebellar granule neurons in primary culture
Take `Cc1ccc(C#N)c(/C(O)=C/c2nc3ccc(F)cc3c(=O)n2-c2ccccc2Cl)n1`: the IC50 was 9.3 nM.

`N#Cc1cccnc1/C(O)=C/c1nc2ccc(F)cc2c(=O)n1-c1ccccc1Cl`: the midpoint of inhibition, the IC50, lay at 14 nM.

`N#Cc1ccccc1/C(O)=C/c1nc2ccc(F)cc2c(=O)n1-c1ccccc1Cl` registered an IC50 of 130 nM. This IC50 lies about 9.3-fold higher than the previous one.

On to `O=c1c2ccccc2nc(/C=C(\O)c2ccccn2)n1-c1ccccc1Cl`, for which the IC50 is 490 nM.

With `O=c1c2cc(F)ccc2nc(/C=C(\O)c2ccccc2F)n1-c1ccccc1Cl`, the IC50 is above 30000 nM.

`O=c1c2ccccc2nc(/C=C(\O)c2ccncc2)n1-c1ccccc1Cl` displayed an IC50 of 370 nM.

Turning to `Cc1cccc(/C(O)=C/c2nc3ccc(F)cc3c(=O)n2-c2ccccc2Cl)n1`, the 50% inhibitory concentration (IC50) stood at 5500 nM.

`O=c1c2cc(F)ccc2nc(/C=C(\O)c2ccccn2)n1-c1ccccc1Cl` gave an IC50 of 250 nM.

As to `CC1=NN=C(c2ccc(N)cc2)c2cc3c(cc2C1)OCO3` [GYKI-52466], the IC50 came to 22000 nM.

`Cc1nc2ccccc2c(=O)n1-c1ccccc1Cl` [MECLOQUALONE] showed an IC50 above 10000 nM.

The compound `Cc1ccccc1-n1c(C)nc2ccccc2c1=O` [METHAQUALONE] came in with an IC50 above 10000 nM.
